Data published in US11589603B2, “Powdered nutritional product containing branched-chain amino acids and a sugar alcohol” (Abbott Laboratories, priority 2015, dated 2023).
One block for each compound: values may come before it.

Columns and labels:
Assay type in all cases: physicochemical
[1] = Example 5: effect of inositol isomers on dissolution of L-leucine, LC/UV of filtrate; settings: for enhancement of dissolution rate of L-leucine by inositol isomer: 0.1 g isomer, 3.50 g L-leucine; for Leu dissolved at 30 seconds (g/16 oz.) / Leu dissolved at 60 seconds (% of total Leu) / Leu dissolved at 60 seconds (g/16 oz.): 3.50 g L-leucine with 0.1 g/16 oz. inositol isomer, water 21° C., 400 rpm
Procedure: The LC/UV system used to perform the tests comprised the following: 1) Column: YMC ODS-AQ, 4.6 x 250 mm, 5 μm, Waters […]; 2) Mobile Phase: Milli-Q Plus water; 3) Flow Rate: 0.4 mL/minute; 4) Temperature: 40° C.; 5) Detection: UV at 192 nm; 6) Injection: 2 μL of filtrate; and 7) Run Time: 20 minutes.

[2] = Example 4: aqueous dissolution of branched-chain amino acids in a powdered nutritional product with varying myo-inositol, LC/UV of filtrate; settings: 17.6 g powdered nutritional product, water 21° C., 400 rpm
Procedure: (§1) The LC/UV system used to perform the tests comprised the following: 1) Column: YMC ODS-AQ, 4.6 x 250 mm, 5 μm, Waters P/N AQ12S052546WT; 2) Mobile Phase: Milli-Q Plus water; 3) Flow Rate: 0.4 mL/minute; 4) Temperature: 40° C.; 5) Detection: UV at 192 nm; 6) Injection: 2 μL of filtrate; and 7) Run Time: 20 minutes.
Example 4 evaluates the effect that myo-inositol concentration has on the aqueous dissolution of branched-chain amino acids (valine, isoleucine, and leucine) in a powdered nutritional product. One serving (17.6 grams) of the powdered nutritional product contains 7.00 grams of a branched-chain amino acid blend comprising 50 wt. % leucine, 25 wt. % isoleucine, and 25 wt. % valine. A serving of the powdered nutritional product with a specified amount of myo-inositol was added to 16 fluid ounces of Milli-Q Plus water at 21° C. and stirred at 400 rpm. At each specified time point, an aliquot was obtained and filtered through a 0.45 μm PTFE membrane (Pall Life Sciences, Acrodisc CR 25, P/N 4501), and the filtrate was tested for valine, isoleucine, and leucine using the LC/UV method as described in Example 3.

[3] = Example 3: aqueous dissolution of powdered branched-chain amino acid blend (first material) with varying myo-inositol, LC/UV of filtrate; settings: for Dissolved amino acid (g per 16 oz.): 7.00 g BCAA blend, water 21° C., 400 rpm
Procedure: Example 3 evaluates the effect that varying the myo-inositol concentration has on the aqueous dissolution of branched-chain amino acids. Two branched-chain amino acid materials were tested. The first material tested was 7.00 grams of a powdered branched-chain amino acid blend comprising 50 wt. % leucine, 25 wt. % isoleucine, and 25 wt. % valine. The second material tested was 3.5 grams of powdered leucine. Each material was tested with varying levels of powdered myo-inositol, expressed as a percentage of 17.6 grams (e.g., a serving of powdered nutritional product). For example, 1% myo-inositol is 0.176 grams, 2% myo-inositol is 0.352 grams, and so forth. The branched-chain amino acid material and the specified amount of myo-inositol were added to 16 fluid ounces of Milli-Q Plus water at 21° C. and stirred at 400 rpm. After 30 seconds and 60 seconds of stirring, an aliquot was obtained and filtered through a 0.45 μm PTFE membrane (Pall Life Sciences, Acrodisc CR 25, P/N 4501), and the filtrate of the first material was tested for valine, isoleucine, and leucine using the LC/UV method described below, while the filtrate of the second material was tested for leucine using the same LC/UV method. The test results for the first material tested are shown in Table 3, while the test results for the second material tested are shown in Table 4.
as §1

[4] = myo-inositol 0% of 17.6 g, 30 seconds
[5] = myo-inositol 0% of 17.6 g, 60 seconds
[6] = myo-inositol 1% of 17.6 g, 30 seconds
[7] = myo-inositol 1% of 17.6 g, 60 seconds
[8] = myo-inositol 2% of 17.6 g, 30 seconds
[9] = myo-inositol 2% of 17.6 g, 60 seconds
[10] = myo-inositol 4% of 17.6 g, 30 seconds
[11] = myo-inositol 4% of 17.6 g, 60 seconds
[12] = myo-inositol 8% of 17.6 g, 30 seconds
[13] = myo-inositol 8% of 17.6 g, 60 seconds

Structure (SMILES): OC1C(O)C(O)C(O)C(O)C1O (stereo not drawn) [cis-inositol]
enhancement of dissolution rate of L-leucine by inositol isomer [1]: most enhanced
Leu dissolved at 30 seconds (g/16 oz.) [1]: 0.649 g/16 oz.
Leu dissolved at 60 seconds (% of total Leu) [1]: 36.3 % of total Leu
Leu dissolved at 60 seconds (g/16 oz.) [1]: 1.27 g/16 oz.

Structure (SMILES): CC(C)[C@H](N)C(=O)O [Valine, L-Valine]
Dissolved amino acid (g per 16 oz.) ([2]; myo-inositol 0%, 30 seconds): 1.30 g per 16 oz.
Dissolved amino acid (g per 16 oz.) ([2]; myo-inositol 0%, 60 seconds): 1.54 g per 16 oz.
Dissolved amino acid (g per 16 oz.) ([2]; myo-inositol 0%, 90 seconds): 1.62 g per 16 oz.
Dissolved amino acid (g per 16 oz.) ([2]; myo-inositol 0%, 240 seconds): 1.69 g per 16 oz.
Dissolved amino acid (g per 16 oz.) ([2]; myo-inositol 0%, 600 seconds): 1.70 g per 16 oz.
Dissolved amino acid (g per 16 oz.) ([2]; myo-inositol 1%, 30 seconds): 1.39 g per 16 oz.
Dissolved amino acid (g per 16 oz.) ([2]; myo-inositol 1%, 60 seconds): 1.59 g per 16 oz.
Dissolved amino acid (g per 16 oz.) ([2]; myo-inositol 1%, 90 seconds): 1.65 g per 16 oz.
Dissolved amino acid (g per 16 oz.) ([2]; myo-inositol 1%, 240 seconds): 1.72 g per 16 oz.
Dissolved amino acid (g per 16 oz.) ([2]; myo-inositol 1%, 600 seconds): 1.72 g per 16 oz.
Dissolved amino acid (g per 16 oz.) ([2]; myo-inositol 2%, 30 seconds): 1.38 g per 16 oz.
Dissolved amino acid (g per 16 oz.) ([2]; myo-inositol 2%, 60 seconds): 1.55 g per 16 oz.
Dissolved amino acid (g per 16 oz.) ([2]; myo-inositol 2%, 90 seconds): 1.63 g per 16 oz.
Dissolved amino acid (g per 16 oz.) ([2]; myo-inositol 2%, 240 seconds): 1.70 g per 16 oz.
Dissolved amino acid (g per 16 oz.) ([2]; myo-inositol 2%, 600 seconds): 1.70 g per 16 oz.
Dissolved amino acid (g per 16 oz.) ([2]; myo-inositol 4%, 30 seconds): 1.44 g per 16 oz.
Dissolved amino acid (g per 16 oz.) ([2]; myo-inositol 4%, 60 seconds): 1.57 g per 16 oz.
Dissolved amino acid (g per 16 oz.) ([2]; myo-inositol 4%, 90 seconds): 1.64 g per 16 oz.
Dissolved amino acid (g per 16 oz.) ([2]; myo-inositol 4%, 240 seconds): 1.70 g per 16 oz.
Dissolved amino acid (g per 16 oz.) ([2]; myo-inositol 4%, 600 seconds): 1.70 g per 16 oz.
Dissolved amino acid (g per 16 oz.) ([2]; myo-inositol 8%, 30 seconds): 1.36 g per 16 oz.
Dissolved amino acid (g per 16 oz.) ([2]; myo-inositol 8%, 60 seconds): 1.56 g per 16 oz.
Dissolved amino acid (g per 16 oz.) ([2]; myo-inositol 8%, 90 seconds): 1.62 g per 16 oz.
Dissolved amino acid (g per 16 oz.) ([2]; myo-inositol 8%, 240 seconds): 1.69 g per 16 oz.
Dissolved amino acid (g per 16 oz.) ([2]; myo-inositol 8%, 600 seconds): 1.69 g per 16 oz.
Dissolved amino acid (g per 16 oz.) [3, 4]: 0.401 g per 16 oz.
Dissolved amino acid (g per 16 oz.) [3, 5]: 0.730 g per 16 oz.
Dissolved amino acid (g per 16 oz.) [3, 6]: 0.432 g per 16 oz.
Dissolved amino acid (g per 16 oz.) [3, 7]: 0.690 g per 16 oz.
Dissolved amino acid (g per 16 oz.) [3, 8]: 0.550 g per 16 oz.
Dissolved amino acid (g per 16 oz.) [3, 9]: 1.01 g per 16 oz.
Dissolved amino acid (g per 16 oz.) [3, 10]: 0.564 g per 16 oz.
Dissolved amino acid (g per 16 oz.) [3, 11]: 0.924 g per 16 oz.
Dissolved amino acid (g per 16 oz.) [3, 12]: 0.797 g per 16 oz.
Dissolved amino acid (g per 16 oz.) [3, 13]: 1.29 g per 16 oz.
valine/myo-inositol correlation on a molar basis, slope of plot (FIG. 2) ([3]; first material, 30 second time point): one valine molecule dissolves for every two molecules of myo-inositol added

Structure (SMILES): OC1C(O)C(O)C(O)C(O)C1O (centres unmarked) [muco-inositol]
Leu dissolved at 30 seconds (g/16 oz.) [1]: 0.379 g/16 oz.
Leu dissolved at 60 seconds (% of total Leu) [1]: 21.5 % of total Leu
Leu dissolved at 60 seconds (g/16 oz.) [1]: 0.751 g/16 oz.

Structure (SMILES): CC[C@H](C)[C@H](N)C(=O)O [Isoleucine, L-Isoleucine]
Dissolved amino acid (g per 16 oz.) ([2]; myo-inositol 0%, 30 seconds): 0.978 g per 16 oz.
Dissolved amino acid (g per 16 oz.) ([2]; myo-inositol 0%, 60 seconds): 1.36 g per 16 oz.
Dissolved amino acid (g per 16 oz.) ([2]; myo-inositol 0%, 90 seconds): 1.50 g per 16 oz.
Dissolved amino acid (g per 16 oz.) ([2]; myo-inositol 0%, 240 seconds): 1.71 g per 16 oz.
Dissolved amino acid (g per 16 oz.) ([2]; myo-inositol 0%, 600 seconds): 1.74 g per 16 oz.
Dissolved amino acid (g per 16 oz.) ([2]; myo-inositol 1%, 30 seconds): 1.09 g per 16 oz.
Dissolved amino acid (g per 16 oz.) ([2]; myo-inositol 1%, 60 seconds): 1.39 g per 16 oz.
Dissolved amino acid (g per 16 oz.) ([2]; myo-inositol 1%, 90 seconds): 1.51 g per 16 oz.
Dissolved amino acid (g per 16 oz.) ([2]; myo-inositol 1%, 240 seconds): 1.71 g per 16 oz.
Dissolved amino acid (g per 16 oz.) ([2]; myo-inositol 1%, 600 seconds): 1.71 g per 16 oz.
Dissolved amino acid (g per 16 oz.) ([2]; myo-inositol 2%, 30 seconds): 1.07 g per 16 oz.
Dissolved amino acid (g per 16 oz.) ([2]; myo-inositol 2%, 60 seconds): 1.33 g per 16 oz.
Dissolved amino acid (g per 16 oz.) ([2]; myo-inositol 2%, 90 seconds): 1.46 g per 16 oz.
Dissolved amino acid (g per 16 oz.) ([2]; myo-inositol 2%, 240 seconds): 1.66 g per 16 oz.
Dissolved amino acid (g per 16 oz.) ([2]; myo-inositol 2%, 600 seconds): 1.70 g per 16 oz.
Dissolved amino acid (g per 16 oz.) ([2]; myo-inositol 4%, 30 seconds): 1.14 g per 16 oz.
Dissolved amino acid (g per 16 oz.) ([2]; myo-inositol 4%, 60 seconds): 1.39 g per 16 oz.
Dissolved amino acid (g per 16 oz.) ([2]; myo-inositol 4%, 90 seconds): 1.52 g per 16 oz.
Dissolved amino acid (g per 16 oz.) ([2]; myo-inositol 4%, 240 seconds): 1.70 g per 16 oz.
Dissolved amino acid (g per 16 oz.) ([2]; myo-inositol 4%, 600 seconds): 1.72 g per 16 oz.
Dissolved amino acid (g per 16 oz.) ([2]; myo-inositol 8%, 30 seconds): 1.09 g per 16 oz.
Dissolved amino acid (g per 16 oz.) ([2]; myo-inositol 8%, 60 seconds): 1.38 g per 16 oz.
Dissolved amino acid (g per 16 oz.) ([2]; myo-inositol 8%, 90 seconds): 1.48 g per 16 oz.
Dissolved amino acid (g per 16 oz.) ([2]; myo-inositol 8%, 240 seconds): 1.72 g per 16 oz.
Dissolved amino acid (g per 16 oz.) ([2]; myo-inositol 8%, 600 seconds): 1.74 g per 16 oz.
Dissolved amino acid (g per 16 oz.) [3, 4]: 0.237 g per 16 oz.
Dissolved amino acid (g per 16 oz.) [3, 5]: 0.495 g per 16 oz.
Dissolved amino acid (g per 16 oz.) [3, 6]: 0.504 g per 16 oz.
Dissolved amino acid (g per 16 oz.) [3, 7]: 0.908 g per 16 oz.
Dissolved amino acid (g per 16 oz.) [3, 8]: 0.337 g per 16 oz.
Dissolved amino acid (g per 16 oz.) [3, 9]: 0.714 g per 16 oz.
Dissolved amino acid (g per 16 oz.) [3, 10]: 0.416 g per 16 oz.
Dissolved amino acid (g per 16 oz.) [3, 11]: 0.791 g per 16 oz.
Dissolved amino acid (g per 16 oz.) [3, 12]: 0.546 g per 16 oz.
Dissolved amino acid (g per 16 oz.) [3, 13]: 0.972 g per 16 oz.

Results, then the compound that gave them:

enhancement of dissolution rate of L-leucine by inositol isomer [1]: most enhanced
Leu dissolved at 30 seconds (g/16 oz.) [1]: 0.626 ± 0.223 g/16 oz.
Leu dissolved at 60 seconds (% of total Leu) [1]: 33.2 ± 10.6 % of total Leu
Leu dissolved at 60 seconds (g/16 oz.) [1]: 1.16 ± 0.37 g/16 oz.
Structure (SMILES): OC1C(O)C(O)C(O)C(O)C1O (stereo not drawn) [epi-inositol]

Leu dissolved at 30 seconds (g/16 oz.) [1]: 0.450 g/16 oz.
Leu dissolved at 60 seconds (% of total Leu) [1]: 24.0 % of total Leu
Leu dissolved at 60 seconds (g/16 oz.) [1]: 0.841 g/16 oz.
Structure (SMILES): O[C@H]1[C@H](O)[C@@H](O)[C@H](O)[C@@H](O)[C@@H]1O [scyllo-inositol]

enhancement of dissolution rate of L-leucine by inositol isomer [1]: most enhanced
Leu dissolved at 30 seconds (g/16 oz.) [1]: 0.792 g/16 oz.
Leu dissolved at 60 seconds (% of total Leu) [1]: 40.4 % of total Leu
Leu dissolved at 60 seconds (g/16 oz.) [1]: 1.41 g/16 oz.
Structure (SMILES): OC1C(O)C(O)C(O)C(O)C1O (centres unmarked) [allo-inositol]

Leu dissolved at 30 seconds (g/16 oz.) [1]: 0.472 g/16 oz.
Leu dissolved at 60 seconds (% of total Leu) [1]: 24.2 % of total Leu
Leu dissolved at 60 seconds (g/16 oz.) [1]: 0.848 g/16 oz.
Structure (SMILES): OC1C(O)C(O)C(O)C(O)C1O [L-chiro-inositol]
